Data taken from the NIST ThermoML archive (doi:10.1016/j.jct.2007.01.009).
± gives the expanded uncertainty stated by the source.

Tests used:
[1] = 101.33 kPa, Liquid
[2] = xn = mol fraction of the nth substance listed; conditions: 283.15 K; 101 kPa; Liquid; Pycnometric method; x2 = 0

| Structure (SMILES) | mass density ([1]; 283.15 K) | mass density ([1]; 288.15 K) | mass density ([1]; 293.15 K) | mass density ([1]; 298.15 K) | mass density ([1]; 303.15 K) | mass density ([1]; 308.15 K) | mass density [2] |
| --- | --- | --- | --- | --- | --- | --- | --- |
| CCCCC(O)CO (configuration not stated) [1,2-hexanediol] | 958.87 ± 1.2 kg/m3 | 955.23 ± 1.2 kg/m3 | 951.68 ± 1.2 kg/m3 | 948.08 ± 1.2 kg/m3 | 944.54 ± 1.2 kg/m3 | 940.88 ± 1.2 kg/m3 | – |
| CC(O)CCCCO (configuration not stated) [1,5-hexanediol] | 978.41 ± 0.69 kg/m3 | 975.51 ± 0.66 kg/m3 | 972.31 ± 0.64 kg/m3 | 968.91 ± 0.66 kg/m3 | 965.51 ± 0.67 kg/m3 | 962.15 ± 0.69 kg/m3 | – |
| CC(O)CCC(C)O (configuration not stated) [2,5-hexanediol] | 968.85 ± 0.68 kg/m3 | 965.56 ± 0.65 kg/m3 | 962.17 ± 0.63 kg/m3 | 959.09 ± 0.65 kg/m3 | 955.72 ± 0.67 kg/m3 | 952.39 ± 0.68 kg/m3 | – |
| O [water] + CC(O)CCC(C)O | – | – | – | – | – | – | 999.7 ± 0.3 kg/m3 |
| O [water] + CC(O)CCCCO | – | – | – | – | – | – | 999.7 ± 0.3 kg/m3 |
| O [water] + CCCCC(O)CO | – | – | – | – | – | – | 999.69 ± 0.3 kg/m3 |
| O [water] + OCCCCCCO | – | – | – | – | – | – | 999.7 ± 0.3 kg/m3 |
